Test results: ChEMBL document CHEMBL1201862, “PubChem BioAssay data set” (2004)
Active and inactive are the calls of the source. Unless noted, no cut-off for these calls is given here.

Key:
Exodeoxyribonuclease V = target: T1, Exodeoxyribonuclease V (Escherichia coli (strain K12), UniProt P04993+P07648+P08394); assay: RecBCD inhibition via phage-restricted bacterial growth – absorbance, V66 E. coli, mutant T4 phage, counter-screen for AddAB inhibitor project, dose response (AID 492957); format: functional, cell-based, Escherichia coli str. K-12 substr. MG1655
T1 sequence (P04993 whole entry): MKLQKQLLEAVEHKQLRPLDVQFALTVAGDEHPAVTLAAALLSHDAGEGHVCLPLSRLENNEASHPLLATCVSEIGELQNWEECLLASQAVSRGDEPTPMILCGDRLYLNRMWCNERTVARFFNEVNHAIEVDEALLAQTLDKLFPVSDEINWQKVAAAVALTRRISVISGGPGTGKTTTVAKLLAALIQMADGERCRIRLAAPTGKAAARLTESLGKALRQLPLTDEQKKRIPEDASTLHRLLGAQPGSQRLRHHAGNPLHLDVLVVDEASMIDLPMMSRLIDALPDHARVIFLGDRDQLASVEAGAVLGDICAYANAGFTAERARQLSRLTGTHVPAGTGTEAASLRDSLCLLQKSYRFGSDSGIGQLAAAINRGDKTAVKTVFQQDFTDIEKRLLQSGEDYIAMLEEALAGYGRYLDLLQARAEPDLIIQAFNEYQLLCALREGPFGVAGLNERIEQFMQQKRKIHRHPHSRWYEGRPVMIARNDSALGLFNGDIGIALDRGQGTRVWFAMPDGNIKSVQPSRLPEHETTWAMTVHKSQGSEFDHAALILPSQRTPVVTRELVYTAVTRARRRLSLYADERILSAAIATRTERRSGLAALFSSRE
T1 sequence (P07648 whole entry): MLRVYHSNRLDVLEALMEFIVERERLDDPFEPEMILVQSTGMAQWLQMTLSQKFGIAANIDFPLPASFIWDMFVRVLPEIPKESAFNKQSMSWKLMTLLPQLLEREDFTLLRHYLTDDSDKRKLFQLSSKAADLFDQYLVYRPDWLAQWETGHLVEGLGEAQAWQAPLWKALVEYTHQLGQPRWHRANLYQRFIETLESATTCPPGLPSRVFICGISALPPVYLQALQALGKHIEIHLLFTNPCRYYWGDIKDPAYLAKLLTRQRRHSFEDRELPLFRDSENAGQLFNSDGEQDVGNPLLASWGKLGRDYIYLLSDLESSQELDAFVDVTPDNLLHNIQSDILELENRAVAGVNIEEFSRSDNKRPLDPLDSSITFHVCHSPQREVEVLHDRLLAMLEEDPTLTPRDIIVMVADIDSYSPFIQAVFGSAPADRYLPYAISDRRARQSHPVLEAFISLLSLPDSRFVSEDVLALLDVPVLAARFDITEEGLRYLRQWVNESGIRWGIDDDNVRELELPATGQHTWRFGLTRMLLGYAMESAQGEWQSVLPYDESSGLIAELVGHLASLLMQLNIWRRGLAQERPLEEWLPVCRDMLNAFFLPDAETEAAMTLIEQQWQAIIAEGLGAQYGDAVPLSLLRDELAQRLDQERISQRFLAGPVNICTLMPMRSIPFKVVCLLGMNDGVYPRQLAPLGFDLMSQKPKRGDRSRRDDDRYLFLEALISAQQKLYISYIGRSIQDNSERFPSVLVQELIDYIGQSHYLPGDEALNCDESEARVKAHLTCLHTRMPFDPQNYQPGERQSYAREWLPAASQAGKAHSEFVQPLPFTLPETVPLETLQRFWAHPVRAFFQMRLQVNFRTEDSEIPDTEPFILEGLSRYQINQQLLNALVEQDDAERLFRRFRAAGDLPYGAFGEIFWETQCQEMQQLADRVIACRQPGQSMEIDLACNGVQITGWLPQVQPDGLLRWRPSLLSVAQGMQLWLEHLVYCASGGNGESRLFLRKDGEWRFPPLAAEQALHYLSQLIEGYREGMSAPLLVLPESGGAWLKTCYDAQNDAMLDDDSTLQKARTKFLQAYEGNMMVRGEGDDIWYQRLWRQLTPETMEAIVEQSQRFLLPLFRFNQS
T1 sequence (P08394 whole entry): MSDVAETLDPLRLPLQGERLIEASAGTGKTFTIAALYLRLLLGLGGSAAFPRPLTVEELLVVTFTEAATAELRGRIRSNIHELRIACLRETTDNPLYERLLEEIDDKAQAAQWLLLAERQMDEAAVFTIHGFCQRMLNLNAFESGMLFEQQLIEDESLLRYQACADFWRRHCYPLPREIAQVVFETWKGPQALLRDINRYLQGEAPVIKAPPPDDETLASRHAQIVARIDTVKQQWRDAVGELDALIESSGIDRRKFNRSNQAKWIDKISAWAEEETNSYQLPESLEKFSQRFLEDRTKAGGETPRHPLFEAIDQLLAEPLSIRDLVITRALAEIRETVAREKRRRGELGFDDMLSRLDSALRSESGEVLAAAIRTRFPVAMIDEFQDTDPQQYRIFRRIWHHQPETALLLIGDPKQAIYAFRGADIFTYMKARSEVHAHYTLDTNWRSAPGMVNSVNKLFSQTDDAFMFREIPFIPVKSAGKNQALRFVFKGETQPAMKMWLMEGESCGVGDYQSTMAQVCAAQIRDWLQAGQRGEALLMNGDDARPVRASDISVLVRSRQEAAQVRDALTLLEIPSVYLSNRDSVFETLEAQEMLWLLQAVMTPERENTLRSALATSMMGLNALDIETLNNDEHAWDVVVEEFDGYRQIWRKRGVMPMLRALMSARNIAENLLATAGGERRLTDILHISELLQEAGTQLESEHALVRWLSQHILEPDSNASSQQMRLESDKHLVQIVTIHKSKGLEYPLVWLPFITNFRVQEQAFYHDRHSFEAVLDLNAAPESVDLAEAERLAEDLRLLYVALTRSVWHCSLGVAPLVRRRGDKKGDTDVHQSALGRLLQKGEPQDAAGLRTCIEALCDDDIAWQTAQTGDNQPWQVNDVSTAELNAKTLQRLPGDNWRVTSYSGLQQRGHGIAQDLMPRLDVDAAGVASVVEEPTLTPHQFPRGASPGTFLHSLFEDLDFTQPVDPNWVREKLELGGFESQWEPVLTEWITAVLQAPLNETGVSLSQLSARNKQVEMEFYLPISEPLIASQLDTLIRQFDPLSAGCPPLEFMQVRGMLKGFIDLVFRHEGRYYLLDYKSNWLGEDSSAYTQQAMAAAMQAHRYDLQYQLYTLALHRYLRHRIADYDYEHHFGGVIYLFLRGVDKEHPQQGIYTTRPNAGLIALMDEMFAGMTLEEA

[1] = target: Likely tRNA 2'-phosphotransferase (Candida albicans (strain SC5314 / ATCC MYA-2876) (Yeast), UniProt Q5A7N4); assay: inhibition of Candida TPT1 enzyme activity – biochemical, fluorescence polarization, dose response (AID 2160)
Sequence of Likely tRNA 2'-phosphotransferase (Q5A7N4 whole entry): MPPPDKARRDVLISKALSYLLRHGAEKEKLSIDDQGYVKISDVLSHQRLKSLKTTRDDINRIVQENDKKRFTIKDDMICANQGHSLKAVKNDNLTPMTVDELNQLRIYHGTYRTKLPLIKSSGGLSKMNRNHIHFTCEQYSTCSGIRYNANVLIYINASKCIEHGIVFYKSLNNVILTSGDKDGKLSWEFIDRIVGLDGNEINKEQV

SMILES	IC50 (Exodeoxyribonuclease V)	IC50 [1]
O=C1c2ccccc2C(=O)c2[nH]c(O)nc21	> 119 µM (inactive)	–
NS(=O)(=O)c1cc(C(=O)NC2CCSc3ccccc32)ccc1Cl (configuration not stated)	–	4.4 µM (active)
